Results on 14 molecules are retold here after patent US9796733B2, “Imidazo-pyrazine derivatives useful as soluble guanylate cyclase activators” (Merck Sharp & Dohme Corp., priority 2014, dated 2017).

As usually defined, the EC50 is the concentration giving half of the maximal effect. Read a high EC50 as a need for much substance.

One assay addresses T1, sGC α1/β1 heterodimer (Homo sapiens, UniProt Q02108+Q02153).
T1 construct: expressed in transfected cells; host or cells: CHO-K1 (clone #7, CHO-K1/sGC)
T1 sequence (Q02108 1-690): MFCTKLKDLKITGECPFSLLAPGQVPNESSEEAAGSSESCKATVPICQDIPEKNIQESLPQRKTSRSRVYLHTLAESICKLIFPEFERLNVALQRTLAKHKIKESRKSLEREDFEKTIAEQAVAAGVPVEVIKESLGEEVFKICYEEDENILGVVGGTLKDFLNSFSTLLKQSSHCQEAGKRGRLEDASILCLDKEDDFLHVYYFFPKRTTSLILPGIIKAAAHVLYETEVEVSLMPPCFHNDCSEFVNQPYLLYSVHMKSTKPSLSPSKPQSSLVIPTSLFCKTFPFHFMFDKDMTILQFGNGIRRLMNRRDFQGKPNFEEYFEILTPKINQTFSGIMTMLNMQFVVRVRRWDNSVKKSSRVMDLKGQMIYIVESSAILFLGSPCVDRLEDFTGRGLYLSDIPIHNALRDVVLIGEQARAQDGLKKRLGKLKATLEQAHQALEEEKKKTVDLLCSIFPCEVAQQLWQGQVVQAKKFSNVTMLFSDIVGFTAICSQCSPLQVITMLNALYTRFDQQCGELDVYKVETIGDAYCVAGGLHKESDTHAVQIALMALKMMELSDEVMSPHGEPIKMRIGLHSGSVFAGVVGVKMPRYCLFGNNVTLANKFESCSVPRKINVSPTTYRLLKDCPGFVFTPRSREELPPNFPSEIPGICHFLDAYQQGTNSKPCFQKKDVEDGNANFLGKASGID
T1 sequence (Q02153 1-619): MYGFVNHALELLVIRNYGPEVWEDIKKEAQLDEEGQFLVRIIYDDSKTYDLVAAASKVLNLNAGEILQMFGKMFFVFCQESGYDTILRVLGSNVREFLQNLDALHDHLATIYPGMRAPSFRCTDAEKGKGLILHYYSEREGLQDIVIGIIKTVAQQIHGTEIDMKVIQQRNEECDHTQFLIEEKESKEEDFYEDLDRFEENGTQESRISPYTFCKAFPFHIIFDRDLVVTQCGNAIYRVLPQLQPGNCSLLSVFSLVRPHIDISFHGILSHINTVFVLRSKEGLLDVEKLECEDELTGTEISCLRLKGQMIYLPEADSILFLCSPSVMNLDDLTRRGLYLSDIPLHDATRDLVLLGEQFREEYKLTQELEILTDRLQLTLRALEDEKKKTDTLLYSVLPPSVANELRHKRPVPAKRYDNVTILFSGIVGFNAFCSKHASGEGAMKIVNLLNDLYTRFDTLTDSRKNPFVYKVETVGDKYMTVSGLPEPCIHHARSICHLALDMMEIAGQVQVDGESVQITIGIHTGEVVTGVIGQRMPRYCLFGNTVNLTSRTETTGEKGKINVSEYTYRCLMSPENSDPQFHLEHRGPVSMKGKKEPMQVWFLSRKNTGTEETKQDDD
The assay is described as follows: Cell-based sGC functional assay (CASA assay): cGMP generation in CHO-K1/sGC cells, HTRF detection. The settings on record: for Emax: CHO-K1, percent activation relative to standard Compound A in CHO-K1/sGC cells, read-out: % Act.; for EC50: inflection point (IP) of cGMP generation in CHO-K1/sGC cells, 4P fit, activity expressed as percentage of Compound A. In outline: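 cGMP was quantified by HTRF after 1 hr, 37° C exposure of thawed CHO-K1 cells expressing sGC α1/β1 to compound, with or without 1 μM DETA-NO. IBMX (0.5 mM) blocked cGMP breakdown, and DMSO was 2.5% final. Percent of standard Compound A's maximal cGMP was fitted (4P) for inflection point.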
(In general: TR-FRET usually uses a lanthanide donor and a delayed reading to cut background.)

Assay [1] has as its system Spontaneously hypertensive rats (SHR). Kind of assay: Acute efficacy in spontaneously hypertensive rats (SHR): telemetry blood pressure lowering after a single oral dose. In kind it is in vivo, rat. In outline: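 Values are the maximum peak fall in systolic pressure after one oral dose (mpk), computed hourly against baseline from a vehicle dose given the day before. Rats were conscious, male, spontaneously hypertensive, with femoral-aortic telemetry recording 30 s every 10 min, 14 days post-surgery.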

Take `Nc1nc(-c2cn3ccnc3c(CCC(F)(F)C(F)(F)F)n2)nc2c1C(c1ccc(F)cn1)(C1CC1)C(=O)N2` (stereo not drawn) [Example 223A, 4-amino-5-cyclopropyl-5-(5-fluoropyridin-2-yl)-2-(8-(3,3,4,4,4-pentafluorobutyl)imidazo [1,2-a]pyrazin-6-yl)-5H-pyrrolo[2,3-d]pyrimidin-6(7H)-one]: at sGC α1/β1 heterodimer, the Emax is 84% and the EC50 was 177 nM. Also, the “Maximum peak decrease of systolic blood pressure (SBP) in SHR, Cat.” value (“Maximum peak decrease” below) in assay [1] (P.O. 1.0 mpk) is reported as “B (Category B=SBP in SHRs 20-40 mmHg)”.

Turning to `Nc1nc(-c2cn3ccnc3c(CCCC(F)(F)F)n2)nc2c1C(c1ccc(OC(F)(F)F)cc1)(C1CC1)C(=O)N2` (stereo not drawn) [Example 347A, 4-amino-5-cyclopropyl-2-(8-(4,4,4-trifluorobutyl)imidazo[1,2-a]pyrazin-6-yl)-5-(4-(trifluoromethoxy)phenyl)-5H-pyrrolo[2,3-d]pyrimidin-6(7H)-one], at sGC α1/β1 heterodimer, the Emax is 107% and the midpoint of the response, the EC50, lay at 131 nM. For the same molecule, the “Maximum peak decrease” value in assay [1] (P.O. 1.0 mpk) is “B (Category B=SBP in SHRs 20-40 mmHg)”.

`CC1(c2ccc(OC(F)(F)F)cc2)C(=O)Nc2nc(-c3cn4ccnc4c(CCC(F)(F)C(F)(F)F)n3)nc(N)c21` (stereo not drawn) [Example 234B, 4-amino-5-methyl-2-(8-(3,3,4,4,4-pentafluorobutyl)imidazo [1,2-a]pyrazin-6-yl)-5-(4-(trifluoromethoxy)phenyl)-5H-pyrrolo[2,3-d]pyrimidin-6(7H)-one]: on sGC α1/β1 heterodimer, the Emax is 105% and the EC50 came to 27 nM. Also, the “Maximum peak decrease” value in assay [1] (P.O. 0.3 mpk) is “A (Category A=SBP in SHRs<20 mmHg)”.

With `CC(C)Cc1nc(-c2nc(N)c3c(n2)NC(=O)C3(c2ccc(Cl)c(F)c2)C2CC2)cn2ccnc12` (stereo not drawn) [Example 315A, 4-amino-5-(4-chloro-3-fluorophenyl)-5-cyclopropyl-2-(8-isobutylimidazo[1,2-a]pyrazin-6-yl)-5H-pyrrolo[2,3-d]pyrimidin-6(7H)-one], at sGC α1/β1 heterodimer, the Emax was determined as 113% and the midpoint of the response, the EC50, lay at 119 nM. The “Maximum peak decrease” value in assay [1] (P.O. 3.0 mpk) is “B (Category B=SBP in SHRs 20-40 mmHg)”.

On to `CC1(c2ccc(F)cn2)C(=O)Nc2nc(-c3cn4ccnc4c(CCCC(F)(F)F)n3)nc(N)c21` (stereo not drawn) [Example 210B, 4-amino-5-(5-fluoropyridin-2-yl)-5-methyl-2-(8-(4,4,4-trifluorobutyl)imidazo[1,2-a]pyrazin-6-yl)-5H-pyrrolo[2,3-d]pyrimidin-6(7H)-one], for which, at sGC α1/β1 heterodimer, the Emax was 97% and the response was half-maximal at 40 nM (EC50). Besides, the “Maximum peak decrease” value in assay [1] (P.O. 0.3 mpk) is recorded as “A (Category A=SBP in SHRs<20 mmHg)”.

With `Cc1nnc(C2(C)C(=O)Nc3nc(-c4cn5ccnc5c(Cc5ccc(F)cc5)n4)nc(N)c32)o1` (single isomer, unassigned) [Example 29A, 4-Amino-2-(8-(4-fluorobenzyl)imidazo[1,2-a]pyrazin-6-yl)-5-methyl-5-(5-methyl-1,3,4-oxadiazol-2-yl)-5H-pyrrolo[2,3-d]pyrimidin-6(7H)-one], on sGC α1/β1 heterodimer, the Emax is 102% and the EC50 is 299 nM. Further, in assay [1] (P.O. 3.0 mpk), the “Maximum peak decrease” value is reported as “B (Category B=SBP in SHRs 20-40 mmHg)”.

For `CC(C)Cc1nc(-c2nc(N)c3c(n2)NC(=O)C3(C)c2ccc(Cl)cc2)cn2ccnc12` (stereo not drawn) [Example 20A, 4-amino-5-(4-chlorophenyl)-2-(8-isobutylimidazo[1,2-a]pyrazin-6-yl)-5-methyl-5H-pyrrolo[2,3-d]pyrimidin-6(7H)-one], on sGC α1/β1 heterodimer, the Emax came to 108% and the EC50 turned out to be 231 nM. The “Maximum peak decrease” value in assay [1] (P.O. 1.0 mpk) is reported as “C (Category C=SBP in SHRs>40 mmHg)”.

For the molecule `Nc1nc(-c2cn3ccnc3c(CCC(F)(F)F)n2)nc2c1C(c1ccc(F)cc1)(C1CCC1)C(=O)N2` (single isomer, unassigned) [Example 345B, 4-amino-5-cyclobutyl-5-(4-fluorophenyl)-2-(8-(3,3,3-trifluoropropyl)imidazo[1,2-a]pyrazin-6-yl)-5H-pyrrolo[2,3-d]pyrimidin-6(7H)-one], at sGC α1/β1 heterodimer, the Emax is 148% and the midpoint of the response, the EC50, lay at 949 nM. In assay [1] (P.O. 3.0 mpk), the “Maximum peak decrease” value is reported as “A (Category A=SBP in SHRs<20 mmHg)”.

As for `Nc1nc(-c2cn3ccnc3c(CCCC(F)(F)F)n2)nc2c1C(c1cncc(F)c1)(C1CC1)C(=O)N2` (stereo not drawn) [Example 356B, 4-amino-5-cyclopropyl-5-(5-fluoropyridin-3-yl)-2-(8-(4,4,4-trifluorobutyl)imidazo[1,2-a]pyrazin-6-yl)-5H-pyrrolo[2,3-d]pyrimidin-6(7H)-one], at sGC α1/β1 heterodimer, the Emax was 108% and the EC50 amounted to 487 nM. In addition, the “Maximum peak decrease” value in assay [1] (P.O. 3.0 mpk) is on record as “A (Category A=SBP in SHRs<20 mmHg)”.

Take `Cc1cn2cc(-c3nc(N)c4c(n3)NC(=O)C4(C)c3ccc(F)cc3)nc(CCC(F)(F)C(F)(F)F)c2n1` (stereo not drawn) [Example 170A, 4-amino-5-(4-fluorophenyl)-5-methyl-2-(2-methyl-8-(3,3,4,4,4-pentafluorobutyl)imidazo [1,2-a]pyrazin-6-yl)-5H-pyrrolo[2,3-d]pyrimidin-6(7H)-one]: on sGC α1/β1 heterodimer, the Emax is 104% and a half-maximal effect (EC50) was put at 57 nM. The “Maximum peak decrease” value in assay [1] (P.O. 1.0 mpk) was “B (Category B=SBP in SHRs 20-40 mmHg)”.

In the case of `CC1(c2ccc(F)cn2)C(=O)Nc2nc(-c3cn4ccnc4c(CC4CCC4)n3)nc(N)c21` (stereo not drawn) [Example 115B, 4-amino-2-(8-(cyclobutylmethyl)imidazo [1,2-a]pyrazin-6-yl)-5-(5-fluoropyridin-2-yl)-5-methyl-5H-pyrrolo[2,3-d]pyrimidin-6(7H)-one], on sGC α1/β1 heterodimer, the Emax came to 111% and a half-maximal response (EC50) required 14 nM. In addition, in assay [1] (P.O. 0.3 mpk), the “Maximum peak decrease” value was “C (Category C=SBP in SHRs>40 mmHg)”.

For the molecule `CC1(c2ccccc2)C(=O)Nc2nc(-c3cn4ccnc4c(CCC(F)(F)F)n3)nc(N)c21` (stereo not drawn) [Example 188B, 4-amino-5-methyl-5-phenyl-2-(8-(3,3,3-trifluoropropyl)imidazo[1,2-a]pyrazin-6-yl)-5H-pyrrolo[2,3-d]pyrimidin-6(7H)-one], on sGC α1/β1 heterodimer, the Emax is 154% and the EC50 worked out at 304 nM. For the same molecule, the “Maximum peak decrease” value in assay [1] (P.O. 3.0 mpk) is listed as “B (Category B=SBP in SHRs 20-40 mmHg)”.

As to `CC1(c2ccc(F)c(F)c2)C(=O)Nc2nc(-c3cn4ccnc4c(CCC(F)(F)F)n3)nc(N)c21` (stereo not drawn) [Example 183B, 4-amino-5-(3,4-difluorophenyl)-5-methyl-2-(8-(3,3,3-trifluoropropyl)imidazo[1,2-a]pyrazin-6-yl)-5H-pyrrolo[2,3-d]pyrimidin-6(7H)-one], on sGC α1/β1 heterodimer, the Emax is 113% and a half-maximal effect (EC50) was put at 61 nM. Besides, the “Maximum peak decrease” value in assay [1] (P.O. 1.0 mpk) is “B (Category B=SBP in SHRs 20-40 mmHg)”.

With `Nc1nc(-c2cn3ccnc3c(CCCC(F)(F)F)n2)nc2c1C(c1ccc(C(F)F)cn1)(C1CC1)C(=O)N2` (single isomer, unassigned) [Example 378B, 4-amino-5-cyclopropyl-5-(5-(difluoromethyl)pyridin-2-yl)-2-(8-(4,4,4-trifluorobutyl)imidazo[1,2-a]pyrazin-6-yl)-5H-pyrrolo[2,3-d]pyrimidin-6(7H)-one], on sGC α1/β1 heterodimer, the Emax was 92% and the EC50 was 373 nM. Also, the “Maximum peak decrease” value in assay [1] (P.O. 1.0 mpk) is given as “B (Category B=SBP in SHRs 20-40 mmHg)”.
